# Measured values published in patent US20250122253A1, “REGULATING MICROTUBULE DYNAMICS AS A THERAPEUTIC TARGET FOR NERVE REPAIR” (City University of Hong Kong, priority 2023, published 2025).
# Assays:
# Assay type in all cases: in vivo, mice
# acetylated tubulin = assay: Western blot of acetylated tubulin/total tubulin in sciatic nerve segments 0-6 mm distal to the crush site; conditions: regenerating axons of sciatic nerves 3 days post-injury
# Description: Ipsilateral L4/5 DRG neurons were harvested at various time points following sciatic nerve injury as indicated. Sciatic nerves were harvested 3 days after crush injury and segmented into 0-6 mm distal to the crush site. Each protein sample was pooled from 3 mice. DRG neurons and segmented sciatic nerves were mechanically dissociated with protein lysis buffer, and subjected to measurement of protein concentration using protein BCA assay (Pierce). Protein lysate (30 μg) was separated on 4-12% NuPAGE Tris-Glycine precast gel (Invitrogen). Protein was then transferred onto a PVDF membrane (Bio-Rad) and blocked with 5% non-fat milk (Bio-Rad) in TBS-T. The membrane was incubated with anti-FMN2 (1:500; ProteinTech), anti-phosphorylated HDAC5 (1:500, ThermoFisher), anti-HDAC5 (1:500, Novus Biologicals), anti-acetylated tubulin (1:10,000; Sigma-Aldrich), anti-NeuN (1:500; Millipore), anti-SOX10 (1:500; Abcam), anti-IBA-1 (1:1,000; Wako), anti-GFP (1:1,000; Cell Signaling), and anti-GAPDH antibodies (1:2,000; ProteinTech) as loading controls. The membrane was incubated with secondary antibody conjugated with horseradish peroxidase (1:2,000; Thermo-Fisher). Signals were detected using West Femto Maximum Sensitivity Substrate Kit (Thermo Scientific). […] Band intensities were measured using Image Lab software (Bio-Rad). […]
# gait movement = assay: Sciatic functional index (SFI) walking track analysis; conditions: 15 days post-injury
# Description: (§1) Adult male Fmn2^−/− mice (8-12 weeks old) and their age-matched WT littermates, or adult male C57BL/6 mice (for whole-body X-ray, AAV2/9-Fmn2-shRNA and metaxalone experiments) were trained and habituated one week before the sciatic nerve crush injury. After three independent training sessions (30 minutes per session with two days break), baseline values were taken, and sciatic nerve crush injury were performed one day after the baseline recordings. Function recovery was monitored for 30 days. On day 3 after the sciatic nerve crush, we first perform pinprick assay and followed by motor function assays every other day in a sequential manner (toe spreading, grip strength, and sciatic functional index) with 30 mins apart from each test. Animal behavioural tests were done blinded to the surgery and genotypes.
# The walking track analysis was performed by training the mice to walk down a narrow corridor covered with white paper strip (10×60 cm) and the hindlimbs of the mice were pained with red water colour. […] The SFI values were calculated from footprints as follows: • […](experimental print length−naïve print length)/naïve print length+109.5×(experimental toe spread−naïve toe spread)/naïve toe spread+13.3×(experimental intermediary toe spread−naïve intermediary toe spread)/naïve intermediary toe spread−8.8. […]
# [1] = system: gastrocnemius and interosseous muscles; assay: Electromyography (EMG) recording of CMAP amplitude
# Description: Electromyography (EMG) recording was performed on anesthetized mice as described. Briefly, mice were anesthetized with ketamine (100 mg/kg)/xylazine (10 mg/kg), and placed on a heat pad set to 37° C. to avoid hypothermia during the course of EMG recordings. Baseline EMG were recorded before sciatic nerve crush injury using custom-made monopolar Teflon-coated electrodes. Following sciatic nerve crush injury, EMG were recorded on a weekly basis for one month (days 7, 14, 21 and 28). For EMG recordings of proximal gastrocnemius muscle, recording electrode was inserted into the gastrocnemius muscle, and Achilles tendon electrode as a reference. For EMG recordings of distal interosseous muscle, recording electrode and reference electrode was inserted into first and fourth muscle of the same paw, respectively. Sciatic nerve was then stimulated proximally or distally, and both proximal and distal stimulations were used for CMAP of interosseous muscle. Only proximal stimulation was used for CMAP of the gastrocnemius muscle. The mean CMAP amplitude was recorded (Blackrock microsystem, USA) and calculated (Spike 2, UK).
# (§2) To examine the therapeutic potential of metaxalone, adult mice received daily intraperitoneal injection of metaxalone at 10 mg/kg immediately after injury for 21 consecutive days (i.e., metaxalone treatment) or delaying daily intraperitoneal injection of metaxalone at 10 mg/kg to 24 hours post-injury for 20 consecutive days (i.e., delayed metaxalone treatment), and all metaxalone treatments ended on day 21 post-injury. The mice were then subjected to sensory and motor function recovery tests and weekly EMG recordings for 28 days post-injury.
# hindlimb muscle strength = assay: Hindlimb grip strength measurement after sciatic nerve crush; conditions: from day 11 to 23
# Description: as §1
# Muscle strength from hindlimbs were measured using a grip strength meter (BIO-GS3, Bioseb). To measure the grip strength of both hindlimbs, their hindlimbs were positioned to grip a metal T-bar connected to the grip strength meter, while their forelimbs were rested on a plastic bar. The mice were then gently pulled off from the T-bar. The values at which the mouse left the T-bar reflected the grip strength in grams. The average grip strength was taken from at least 5 consecutive grip strength measurements per animal. […]
# [2] = system: motor function of injured hindlimb; assay: Toe spreading reflex (motor function recovery) after sciatic nerve crush
# Description: as §1
# To assess toe spreading reflex following PNI, mice were covered by a piece of cotton, lifted up by the tails, and uncovered their hindlimbs for assessment. Toe spreading reflex was scored as follow: 0 for no spreading, 1 for intermediate spreading with all toes separated for less than 2 seconds, and 2 for full spreading with all toes completely and widely spread, and sustained for at least two seconds. Mice were scored only when a full response was observed on the contralateral side (uninjured hindlimbs). Mice were assessed twice with 30-minute time interval in between.
# as §2
# [3] = 10 mg/kg intraperitoneally immediately after PNI
smiles,measurement,setting,value
Cc1cc(C)cc(OCC2CNC(=O)O2)c1 (stereo not drawn) [metaxalone],tubulin acetylation,acetylated tubulin,reduction of tubulin acetylation
same,increase of average SFI compared with SFI values at day 3 post-injury,gait movement; treated immediately,73.0%
same,"increase of average SFI compared with SFI values at day 3 post-injury, delayed treatment",gait movement; treatment delayed by 24 hours,71.4%
same,"muscle activities in proximal gastrocnemius vs vehicle controls, delayed treatment","[1]; delayed treatment, week 1 to 3 post-injury",significant improvement
same,"muscle activity in interosseous muscles vs vehicle controls, delayed treatment","[1]; delayed treatment, week 2-3 post-injury",significant increase
same,muscle activity in most distal interosseous muscles vs vehicle controls,"[1]; immediate treatment, first 3 weeks post-injury",reached significance levels
same,muscle activities in proximal gastrocnemius vs vehicle controls,"[1]; immediate treatment, week 1 to 3 post-injury",significant improvement
same,hindlimb grip strength recovery vs controls,hindlimb muscle strength; immediate treatment 10 mg/kg,significantly higher
same,"hindlimb grip strength recovery vs controls, delayed treatment","hindlimb muscle strength; treatment delayed 24 hours, 10 mg/kg",significantly higher
same,"additional time vs metaxalone-treated mice to recover 50% and to fully regain toe spreading reflex, delayed treatment",[2]; 10 mg/kg intraperitoneally delayed to 24 hours post-injury,1 days
same,time to fully regain toe spreading reflex,[2]; [3],19 days
same,time to recover 50% of toe spreading reflex (reaching score 1),[2]; [3],14 days
